Experimental findings from PubChem BioAssay (NCI) are described below.

Among the test systems are HCT-116 colon; RXF 393 renal; UO-31 renal; KM12 colon; SF-268 CNS; ACHN renal; SK-MEL-28 melanoma; MALME-3M melanoma; SN12C renal; NCI-H226 lung.
What all share (test): growth of human tumour cells (NCI), 48 h

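Values below derive from 48-hour exposures of cells grown in 96-well plates, with endpoints linearly interpolated between the two concentrations bracketing the appropriate inhibition level. Abbreviation: GI50, concentration required for 50% inhibition of growth. TGI: concentration producing complete growth inhibition.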 Some results are limits rather than exact numbers.

In the case of `Fc1ccc(-c2ncn(C3CCNCC3)c2-c2ccnc(Oc3ccc(Cl)cc3)n2)cc1`, the GI50 in the assay on HCT-116 colon was 3.97 µM; in the assay with RXF 393 renal it was 2.56 µM; with UO-31 renal it was 3.38 µM; in the assay with KM12 colon, 4.51 µM; with SF-268 CNS it was 8.67 µM; in the assay on ACHN renal it was 4.19 µM. For the same compound, the GI50 in the assay with SK-MEL-28 melanoma is 4.17 µM; in the assay with MALME-3M melanoma, 4.64 µM; in the assay on SN12C renal, 3.67 µM. In addition, the TGI with HCT-116 colon was 7.65 µM; in the assay with RXF 393 renal it was 5.91 µM; in the assay on UO-31 renal it was 12.2 µM; in the assay with KM12 colon, 8.79 µM; in the assay on SF-268 CNS it was more than 25 µM; in the assay on ACHN renal, 10.6 µM. The TGI with SK-MEL-28 melanoma came to 7.85 µM; with MALME-3M melanoma, 10.1 µM; in the assay with SN12C renal, 7.17 µM.
`N.N.N.N.O=S([O-])[O-].[Co+3].[N-]=[N+]=[N-]`: the GI50 with HCT-116 colon, in the assay with UO-31 renal, in the assay on KM12 colon, with SF-268 CNS, with ACHN renal and in the assay on SK-MEL-28 melanoma was more than 100 µM in each case. The GI50 in the assay with MALME-3M melanoma and in the assay on SN12C renal was more than 100 µM throughout. The TGI in the assay with HCT-116 colon, in the assay on UO-31 renal, in the assay with KM12 colon, with SF-268 CNS, in the assay on ACHN renal and in the assay on SK-MEL-28 melanoma was more than 100 µM each time. Further, the TGI with MALME-3M melanoma and in the assay on SN12C renal was more than 100 µM each time.
Regarding `CC(NC1CCCC[C@@H]1O)c1ccccc1` (stereo partly specified), the TGI in the assay with HCT-116 colon, in the assay on RXF 393 renal, in the assay with UO-31 renal, in the assay with NCI-H226 lung, in the assay with KM12 colon and in the assay with ACHN renal was more than 100 µM each time. Besides, the TGI with SK-MEL-28 melanoma, with MALME-3M melanoma and in the assay on SN12C renal was more than 100 µM each time.
On to `O=C(O)C(Cc1ccccc1)N1C(=O)/C(=C/C(Cl)=C/c2ccc([N+](=O)[O-])cc2)SC1=S` (stereo unspecified), for which the GI50 with HCT-116 colon was 2.01 µM; in the assay with RXF 393 renal, 1.54 µM; in the assay on UO-31 renal it was 1.59 µM; in the assay with NCI-H226 lung, 1.58 µM; in the assay on KM12 colon, 2.06 µM; with ACHN renal, 1.8 µM. Also, the GI50 in the assay on SK-MEL-28 melanoma was 2.16 µM; with MALME-3M melanoma it was 2.13 µM. Further, the TGI with HCT-116 colon was 5.47 µM; with RXF 393 renal, 3.02 µM; with UO-31 renal, 3.1 µM; with NCI-H226 lung, 3.27 µM; with KM12 colon, 4.35 µM; in the assay with ACHN renal, 3.3 µM. The TGI was 4.68 µM in the assay on SK-MEL-28 melanoma and 4.82 µM in the assay on MALME-3M melanoma.
`C[C@]12CC[C@H](OC(=O)Nc3ccccc3)CC1=CC[C@@H]1C2CC[C@]2(C)/C(=N/OC(=O)Nc3ccccc3)CCC12` (stereo partly specified): the TGI with HCT-116 colon was more than 100 µM; in the assay with UO-31 renal it was 7.91 µM; in the assay on KM12 colon, more than 100 µM; in the assay with SF-268 CNS, more than 100 µM; in the assay with ACHN renal, more than 100 µM; with SN12C renal, 3.32 µM.
On to `OC(Cc1cccc2ccccc12)CN1CCC(c2ccccc2)CC1` (stereo unspecified), for which the TGI with HCT-116 colon was determined as 28.7 µM; in the assay with RXF 393 renal, 23 µM; in the assay with UO-31 renal it was 0.176 µM; with KM12 colon, 33.7 µM; in the assay with SF-268 CNS, 28.2 µM; in the assay with ACHN renal, 31.7 µM. For the same compound, the TGI in the assay on SK-MEL-28 melanoma worked out at 26.8 µM; with SN12C renal it was 30.6 µM.
With `CCCCS(=O)(=O)c1cc(Nc2ccc(O)c3c2C(=O)c2ccccc2C3=O)ccc1C`, the GI50 was more than 100 µM in the assay on HCT-116 colon; 14.6 µM with RXF 393 renal; more than 100 µM in the assay with UO-31 renal; more than 100 µM in the assay on NCI-H226 lung; more than 100 µM in the assay with KM12 colon; 57.7 µM in the assay on SF-268 CNS. The GI50 in the assay on ACHN renal, with SK-MEL-28 melanoma and with SN12C renal was more than 100 µM each time. Moreover, the TGI in the assay with HCT-116 colon, in the assay with RXF 393 renal, in the assay on UO-31 renal, with NCI-H226 lung, in the assay on KM12 colon and in the assay on SF-268 CNS was more than 100 µM each time. The TGI with ACHN renal, with SK-MEL-28 melanoma and with SN12C renal was more than 100 µM each time.
On to `Cn1cnnc1Sc1c([N+](=O)[O-])nc(-c2ccc([N+](=O)[O-])cc2)n1C`, for which the TGI in the assay with HCT-116 colon is 28.4 µM; in the assay on UO-31 renal it was 28 µM; in the assay on NCI-H226 lung it was 89.9 µM; in the assay on KM12 colon, 41.2 µM; in the assay with SF-268 CNS it was 32.5 µM; in the assay with ACHN renal it was 33.7 µM. For the same compound, the TGI with SK-MEL-28 melanoma turned out to be 29.6 µM; in the assay on MALME-3M melanoma, 29.5 µM; with SN12C renal, 29.6 µM.
For `C=C(CN1CCN(c2ccccn2)CC1)c1ccc(C(=O)Nc2ccccc2N)cc1`, the GI50 in the assay with HCT-116 colon is 2.5 µM; in the assay on RXF 393 renal, 1.55 µM; in the assay with UO-31 renal it was 1.8 µM; in the assay with KM12 colon, 0.936 µM; in the assay with SF-268 CNS, 1.66 µM; with ACHN renal, 1.5 µM. Further, the GI50 in the assay with SK-MEL-28 melanoma is 2.52 µM; in the assay with SN12C renal, 2.35 µM. The TGI in the assay on HCT-116 colon was 32.1 µM; in the assay with RXF 393 renal, 13 µM; in the assay with UO-31 renal, 7.57 µM; with KM12 colon, 3.12 µM; in the assay on SF-268 CNS, 9.22 µM; in the assay with ACHN renal it was more than 50 µM. Moreover, the TGI in the assay on SK-MEL-28 melanoma and with SN12C renal was more than 50 µM each time.
Take `COc1ccc(OCC(=O)O)c2c1CCC(C)C2=O` (stereo unspecified): the TGI in the assay on HCT-116 colon, in the assay with UO-31 renal, in the assay with KM12 colon, in the assay on SF-268 CNS, in the assay on ACHN renal and with SK-MEL-28 melanoma was more than 100 µM each time. In addition, the TGI in the assay with MALME-3M melanoma and with SN12C renal was more than 100 µM in each case.
`Nc1ccc(C(=O)N/C(=C\c2ccc3c(c2)OCO3)c2nc3ccccc3s2)cc1`: the TGI with RXF 393 renal worked out at 27.9 µM; in the assay with UO-31 renal, 29 µM; with KM12 colon, 28 µM; in the assay with SF-268 CNS it was 24.2 µM; with ACHN renal, 27.2 µM; in the assay on SK-MEL-28 melanoma, 25.9 µM. The TGI with SN12C renal was found to be 25.6 µM.
